Measurements published in ChEMBL document CHEMBL1146459, “Production of biologically active taxoids by a callus culture of Taxus cuspidata” (2004).

Tests used:
[1] = test system: KM12; assay: Growth inhibition of human KM12 cells after 48 hrs by SRB assay; assay type: functional; settings: KM12, 48 h, read-out: pTGI (converted)
[2] = test system: SNB-78; assay: Growth inhibition of human SNB78 cells after 48 hrs by SRB assay; assay type: functional; settings: SNB-78, 48 h
[3] = Reversal of multidrug resistance in human 2780AD cells assessed as [3H]vincristine accumulation at 0.1 ug/mL after 2 hrs relative to verapamil; assay type: functional, A2780 ADR
[4] = test system: SF-295; assay: Growth inhibition of human SF295 cells after 48 hrs by SRB assay; assay type: functional; settings: SF-295, 48 h
[5] = Growth inhibition of human HBC4 cells after 48 hrs by SRB assay; assay type: functional; settings: HBC4, 48 h
[6] = test system: MDA-MB-231; assay: Growth inhibition of human MDA-MB-231 cells after 48 hrs by SRB assay; assay type: functional; settings: MDA-MB-231, 48 h
[7] = test system: PC-3; assay: Growth inhibition of human PC3 cells after 48 hrs by SRB assay; assay type: functional; settings: PC-3, 48 h
[8] = test system: SK-OV-3; assay: Growth inhibition of human SKOV3 cells after 48 hrs by SRB assay; assay type: functional; settings: SK-OV-3, 48 h
[9] = test system: OVCAR-4; assay: Growth inhibition of human OVCAR4 cells after 48 hrs by SRB assay; assay type: functional; settings: OVCAR-4, 48 h
[10] = test system: MKN-74; assay: Growth inhibition of human MKN74 cells after 48 hrs by SRB assay; assay type: functional; settings: MKN-74, 48 h
[11] = test system: LOX IMVI; assay: Growth inhibition of human LOXIMVI cells after 48 hrs by SRB assay; assay type: functional
[12] = test system: NCI-H522; assay: Growth inhibition of human NCI-H522 cells after 48 hrs by SRB assay; assay type: functional; settings: NCI-H522, 48 h
[13] = read-out: LC50 (the source's name)
[14] = read-out: pLC50 (the source's name) (converted)

In the case of `C=C1[C@@H](OC(C)=O)CC[C@@]2(C)C[C@H](OC(C)=O)C3=C(C)C[C@H](OC(=O)C(C)CC)[C@@H]([C@@H](OC(C)=O)[C@H]12)C3(C)C` (stereo partly drawn), the TGI [1] is reported as 100 µM, the GI50 ([2]; read-out: GI50) is reported as 50 µM and the CC50 [2, 13] is reported as greater than 100 µM. It also gave a TGI ([2]; read-out: TGI) greater than 100 µM, a GI50 ([2]; read-out: pGI50 (converted)) of 50.1 µM and a TGI ([2]; read-out: pTGI (converted)) of 100 µM. For the same molecule, the Activity [3] was 95%, the GI50 ([4]; read-out: GI50) was 21 µM and the CC50 [4, 13] was greater than 100 µM. The TGI ([4]; read-out: TGI) was greater than 100 µM, the GI50 ([4]; read-out: pGI50 (converted)) was 21.4 µM and the TGI ([4]; read-out: pTGI (converted)) was 100 µM. It also gave a GI50 ([5]; read-out: GI50) of 72 µM, a CC50 [5, 13] greater than 100 µM and a TGI ([5]; read-out: TGI) greater than 100 µM. For the same molecule, the GI50 ([5]; read-out: pGI50 (converted)) was 72.4 µM, the CC50 [5, 14] was 100 µM and the TGI ([5]; read-out: pTGI (converted)) was 100 µM. The GI50 ([6]; read-out: GI50) was 18 µM, the CC50 [6, 13] was greater than 100 µM and the TGI ([6]; read-out: TGI) was greater than 100 µM. For the same molecule, the GI50 ([6]; read-out: pGI50 (converted)) was 18.2 µM, the TGI ([6]; read-out: pTGI (converted)) was 100 µM and the GI50 ([7]; read-out: GI50) was 20 µM. For the same molecule, the CC50 [7, 13] was greater than 100 µM, the TGI ([7]; read-out: TGI) was greater than 100 µM and the GI50 ([7]; read-out: pGI50 (converted)) was 20 µM. It also gave a TGI ([7]; read-out: pTGI (converted)) of 100 µM, a GI50 ([8]; read-out: GI50) of 68 µM and a CC50 [8, 13] greater than 100 µM. The TGI ([8]; read-out: TGI) was greater than 100 µM, the GI50 ([8]; read-out: pGI50 (converted)) was 69.2 µM and the CC50 [8, 14] was 100 µM. For the same molecule, the TGI ([8]; read-out: pTGI (converted)) was 100 µM, the GI50 ([9]; read-out: GI50) was 21 µM and the CC50 [9, 13] was greater than 100 µM. For the same molecule, the TGI ([9]; read-out: TGI) was greater than 100 µM, the GI50 ([9]; read-out: pGI50 (converted)) was 21.4 µM and the CC50 [9, 14] was 100 µM. It also gave a TGI ([9]; read-out: pTGI (converted)) of 100 µM, a GI50 ([10]; read-out: GI50) of 30 µM and a CC50 [10, 13] greater than 100 µM. For the same molecule, the TGI ([10]; read-out: TGI) was greater than 100 µM, the GI50 ([10]; read-out: pGI50 (converted)) was 30.2 µM and the CC50 [10, 14] was 100 µM. It also gave a TGI ([10]; read-out: pTGI (converted)) of 100 µM, a GI50 ([11]; read-out: GI50) of 35 µM and a CC50 [11, 13] greater than 100 µM. For the same molecule, the TGI ([11]; read-out: TGI) was greater than 100 µM, the GI50 ([11]; read-out: pGI50 (converted)) was 34.7 µM and the CC50 [11, 14] was 100 µM. It also gave a TGI ([11]; read-out: pTGI (converted)) of 100 µM, a GI50 ([12]; read-out: GI50) of 15 µM and a CC50 [12, 13] greater than 100 µM. The TGI ([12]; read-out: TGI) was 49 µM, the GI50 ([12]; read-out: pGI50 (converted)) was 24 µM and the CC50 [12, 14] was 100 µM. For the same molecule, the TGI ([12]; read-out: pTGI (converted)) was 49 µM.
